From paper PMC2931818 (Anti-cancer drugs, 2010)

Tests used:
[1] = 5-FU plasma concentration at steady state during 46-h infusion; format: in vivo, human; conditions: cycle 2; 2400 mg/m^2 46-h continuous infusion
[2] = Edotecarin plasma pharmacokinetics in cancer patients after 1-h IV infusion; format: in vivo, human; conditions: for AUC (0-inf) / AUC (0–24): 6 mg/m^2 dose only; for AUC (0-inf) / AUC (0–24) / CL (total body-clearance) / T (terminal half-life) / Vss / Dose normalized AUC (0-inf) / Dose normalized AUC (0–24) / Dose normalized Cmax / half-life / Tmax: mean ± SD; for Dose normalized AUC (0-inf) / Dose normalized AUC (0–24) / Dose normalized Cmax: normalized to a 1 mg/m^2 dose; for half-life / Tmax: human, plasma, intravenous; for half-life: T (terminal half-life)
[3] = system: advanced/metastatic solid tumors; assay: Tumor response by Response Evaluation Criteria in Solid Tumors; format: in vivo, human; conditions: 14 treated patients, edotecarin/5-FU/LV
[4] = system: patients with advanced/metastatic solid tumors
topoisomerase I (Topo I) = conditions: cited from earlier work
[5] = system: human CRC model (HCT-116); conditions: no added toxicity; cited from earlier work
[6] = system: cells that have acquired resistance related to P-glycoprotein; conditions: cited from earlier work
liver micrometastases = conditions: mice; cited from earlier work
[7] = system: patients with solid tumors; conditions: single agent, cited from earlier work
[8] = system: irinotecan-naïve patients with CRC; conditions: single agent 13 mg/m^2, cited from earlier work
P450 = conditions: cited from earlier work
[9] = system: HCT-116 colon, SCC-25 tongue, A427 NSCL and J82 human carcinoma cell lines; conditions: variety of cell lines (e.g. colon, non-small cell, lung, tongue and bladder); cited from earlier work
[10] = all 14 patients, all cycles, edotecarin with 5-FU/LV

O=c1[nH]cc(F)c(=O)[nH]1 [5-FU, 5-fluorouracil]
average concentration obtained at steady state [1]: 455.9 ± 222.8 ng/mL

O=C1c2c(c3c4ccc(O)cc4n([C@@H]4O[C@H](CO)[C@@H](O)[C@H](O)[C@H]4O)c3c3[nH]c4cc(O)ccc4c23)C(=O)N1NC(CO)CO [Edotecarin, 6–N-(1-hydroxymethyla-2-hydroxyl) ethylamino-12,13-dihydro-13-(beta-D-glucopyranosyl)-5Hindolo(2,3-a)-pyrrolo(3,4-c)-carbazole-5,7(6H)-dione]
AUC (0-inf) ([2]; cycle 1): 124.5 ± 34.7 ng/h/mL
AUC (0–24) ([2]; cycle 1): 91.0 ± 21.6 ng/h/mL
CL (total body-clearance) ([2]; cycle 1): 51.3 ± 12.4 l/h/m^2
T (terminal half-life) ([2]; cycle 1): 25.3 ± 6.4 h
Vss ([2]; cycle 1): 884.4 ± 296.0 l/m^2
Dose normalized AUC (0-inf) ([2]; cycle 1): 20.7 ± 5.4 ng/h/mL
Dose normalized AUC (0–24) ([2]; cycle 1): 15.3 ± 3.6 h/ng/mL
Dose normalized Cmax ([2]; cycle 1): 13.2 ± 2.9 ng/mL
AUC (0-inf) ([2]; cycle 2): 91.7 ± 31.9 ng/h/mL
AUC (0–24) ([2]; cycle 2): 65.3 ± 22.9 ng/h/mL
CL (total body-clearance) ([2]; cycle 2): 73.3± 29.7 l/h/m^2
T (terminal half-life) ([2]; cycle 2): 20.3 ± 4.2 h
Vss ([2]; cycle 2): 1408.7± 999.7 l/m^2
Dose normalized AUC (0-inf) ([2]; cycle 2): 15.4 ± 5.1 ng/h/mL
Dose normalized AUC (0–24) ([2]; cycle 2): 11.1 ± 3.7 h/ng/mL
Dose normalized Cmax ([2]; cycle 2): 10.1 ± 4.4 ng/mL
half-life ([2]; cycle 1): ~1500 min
half-life ([2]; cycle 2): ~1200 min
Tmax ([2]; cycle 1): 28.8 ± 13.2 min
Tmax ([2]; cycle 2): 49.8 min
disposition after completion of the IV administration ([2]; very rapid initial decline then much slower reduction in plasma concentrations): bi-exponential disposition
patients with progressive disease as best overall response [3]: six patients
patients with stable disease as best overall response [3]: seven patients
patients with complete response as best overall response ([3]; patient with HCC, confirmed by cycle 5): one patient
patients with DLT (grade 3 neutropenia not recovered to grade 1 by day 21) ([4]; 6 mg/m^2 edotecarin cohort without 5-FU bolus, expanded to five patients): one patient
patients with grade 4 neutropenia (DLT) ([4]; 8 mg/m^2 edotecarin cohort, no 5-FU bolus, two of the three patients): 66%
deaths within 30 days of the last treatment dose ([4]; 14 patients): No patients died
patients discontinued from the study because of adverse events (neutropenia) ([4]; 14 patients, 90 cycles): four patients
patients with dose reductions because of AEs (neutropenia) ([4]; 14 patients, 90 cycles): three patients
patients with serious adverse events ([4]; 14 patients, 90 cycles, two treatment-related, two unrelated): four patients
patients with fatigue (AE overall) [4, 10]: 64%
patients with neutropenia (AE overall) [4, 10]: 57%
patients with pyrexia (AE overall) [4, 10]: 50%
patients with vomiting (AE overall) [4, 10]: 42%
patients with fatigue during cycle 1 ([4]; all 14 patients, cycle 1): 35%
patients with nausea during cycle 1 ([4]; all 14 patients, cycle 1): 50%
patients with neutropenia during cycle 1 ([4]; all 14 patients, cycle 1): 50%
changes in clinical laboratory parameters, vital signs measurements, or ECG results ([4]; edotecarin with 5-FU/LV): No clinically important treatment-related changes
gastrointestinal toxicities, especially diarrhea ([4]; edotecarin with 5-FU/LV, in general): minimal
maximum tolerated dose ([4]; edotecarin with infusional 5-FU/LV every 2 weeks, only 6 and 8 mg/m^2 explored): no maximum tolerated dose was declared
induction of single-strand DNA cleavage (topoisomerase I (Topo I); at different DNA sequences): more effectively than NB-506 or camptothecin
stability of induced DNA-Topo I complexes (topoisomerase I (Topo I)): more stable than those occurring after exposure to camptothecin or NB-506
efficacy in combination with 5-FU (concurrent treatment) [5]: efficacy superior in combination than with the drugs as single agents
activity on P-glycoprotein-related resistant cells [6]: effective
inhibition of proliferation of liver micrometastases (liver micrometastases): highly effective
recommended dose for phase II studies ([7]; 3-week schedule with 1 week permitted for recovery): 13 mg/m^2
recommended phase II dose ([7]; once every 21 days, ref Hurwitz et al. [8]): 13 mg/m^2
patients with stable disease (including four minor responses) ([8]; 24 patients, 13 patients): 57%
patients with partial response ([8]; 24 patients, three patients): 13%
median time to tumor progression [8]: 7.1 months
patients with grade 3/4 febrile neutropenia ([8]; one patient): 4.2%
formation of active metabolites (P450): does not form any active metabolites
substrate for in vitro P450-mediated metabolism (P450): is not a substrate
effect of the combination of edotecarin with 5-FU [9]: additive effect
